US20250177478A1, “G ALPHA Q/11 INHIBITORS FOR USE AS AN ANALGESIC” (University of Florida Research Foundation, Incorporated, priority 2022, published 2025)
Positions of bridges follow the written chain, without caps; N, C: chain ends. Non-standard residues stand in square brackets, D forms with d. Residues, ends and D or L forms follow the SMILES beside them. Leu(3R-O(AcLeu(3R-OH))) = CC(=O)N[C@H](C(=O)O[C@H](C(C)C)[C@H](N)C(=O)O)[C@H](O)C(C)C; NMeT = CN[C@H](C(=O)O)[C@@H](C)O; dPhLac = O=C(O)[C@H](O)Cc1ccccc1; NMeA = CN[C@@H](C)C(=O)O; NMeDha = C=C(NC)C(=O)O

What was measured:
C57BL/6 mice [1] = test: Hot plate test (52.5° C), anti-nociception; type: in vivo, mouse
Source text: (§1) A. Experimental animals. C57BL/6 mice (6-8 weeks old) of both sexes were used. Mice were housed in groups on a 12-h light-dark cycle (6:00 am light cycle; 6:00 pm dark cycle) with food (Teklad Global 16% protein rodent diets; Envigo Inc., WI, USA) and water available ad libitum. Animal groups were compiled to ensure minimization of factors (e.g., weight, sex, and health). Mice were within 20-28 g in weight at start of all studies. All tested groups contained a control group and consisted of male and female mice. Males and females were tested on the same day but at different times so that they were not in the room at the same time. All the experiments were tested during the light cycle between 8:00 am and 3:00 pm to avoid any long-term disruption of sleep cycles. Mice were transferred to the behavioural testing room at least 45 min before the first test to acclimatize. Following behavioural evaluation, animals were killed by CO2 inhalation, followed by cervical dislocation and postmortem decapitation.
(§2) B. Drug treatments. […] The dose of YM-254890 for subcutaneous injection was taken from previous published studies. The dose of morphine selected for subcutaneous administration (2.5, 5 and 10 mg kg-1) is commonly used in mouse analgesia. For the combined administration of morphine and YM-254890 on thermal anti-nociception, YM-254890 was administered 10 min before the morphine. The latency of response was measured before injection of drugs (baseline latency response) and at different time intervals (post-treatment latency response) after drugs injection.
D. Intracerebral injections. Intracerebroventricular administration was performed following the method described previously with slight modifications (Haley T J et al. “Pharmacological effects produced by intracerebral injection of drugs in the conscious mouse.” British Journal of Pharmacology and Chemotherapy, (1957) 12:12-15; Narita M et al. “Reduced expression of a novel μ-opioid receptor (MOR) subtype MOR-1B in CXBK mice: Implications of MOR-1B in the expression of MOR-mediated responses.” The European Journal of Neuroscience (2003) 18:3193-3198)). On the day of the drug/vehicle injection or on the day of behavioural test, the mouse was secured at the nape of the neck and head by the investigator's thumb and forefinger, and head of the mouse was held against a V-shaped holder. A 27-gauge hypodermic needle attached with 25 μL. Hamilton microsyringe was inserted perpendicularly into the unilateral injection site into the hole with the depth of 3.5 mm. The injection volume was 4 μL.
(1) Hot Plate test. Animals were tested for the assessment of anti-nociception and analgesic effects of morphine using a hotplate set to 52.5° C. The assay was performed as described previously (Bannon A W et al. “Models of nociception: Hotplate, tail-flick, and formalin tests in rodents.” In Current Protocols in Neuroscience, Chapter 8: Unit 8.9. Wiley (2007); Wang D et al. “Genetic behavioral screen identifies an orphan anti-opioid system.” Science (2019) 365:1267-1273). Mice were placed in a Plexiglas chamber (16″ tall and 8″ in diameter) on a ceramic plate heated to 52.5° C. and the timer started.

C57BL/6 mice [2] = test: Tail immersion test (54° C), spinal analgesia; type: in vivo, mouse; details: for anti-nociceptive response in tail flick (tail immersion) test: subcutaneous
Source text: as §1, §2
C. Intrathecal injections. Intrathecal (i.t.) administration was performed following the method described previously (Hylden J L et al. “Intrathecal morphine in mice: a new technique.” Eur J Pharmacol (1980) 67:313-316; Li D et al. “Direct Intrathecal Injection of Recombinant Adeno-associated Viruses in Adult Mice.” J Vis Exp (2019)) with slight modifications. All intrathecal injections were performed using a 25 μL Hamilton syringe with a 30-gauge needle. The injection volume was 5 μL for each mouse. […] Each solution was injected without injection cannulae. Intrathecal injections were made into the L5-L6 intervertebral space of unanesthetized mice. The flick of the tail was considered indicative of a successful i.t. administration.
(2) Tail Immersion test. Anti-nociception induced by YM-254890 or evaluation of morphine's analgesic effects was determined by tail immersion test. The test was performed as previously described (Wang et al. 2019). Individual mice were transferred to experimentation room and restrained using a well-ventilated 50-ml tube with air holes. In order to minimize handling and to facilitate both the drug delivery and testing, each mouse was comfortably positioned in the plastic restrainer tubes with both fore paws and hind paws extending through holes at the bottom of the restrainer. All animals were habituated to restraint 1 h for 3 days prior to behaviour test. […] Once the animal was immobilized (within 25-30 s), two thirds of the entire tail was dipped in water bath heated to 54° C.

[3] = YM-254890 0.5 mg·kg−1 s.c. 10 min before morphine 5 mg/kg s.c.
[4] = YM-254890 s.c. with morphine 5 mg/kg s.c., all animals

C=C1C(=O)N[C@@H](C)C(=O)N(C)[C@@H](C)C(=O)N[C@@H]([C@H](OC(=O)[C@@H](NC(C)=O)[C@H](O)C(C)C)C(C)C)C(=O)N(C)[C@@H]([C@@H](C)OC)C(=O)O[C@H](C)[C@H](NC(C)=O)C(=O)O[C@H](Cc2ccccc2)C(=O)N1C [YM-254890] (Ac-T[dPhLac][NMeDha]A[NMeA][Leu(3R-O(AcLeu(3R-OH)))][NMeT](Me); ester 1-C)
effect on opioid-induced analgesia, hotplate test (C57BL/6 mice [1]; YM-254890 0.25 mg·kg−1 s.c. (subthreshold) 10 min before morphine 5 mg/kg s.c.): significantly potentiated anti-nociceptive effects | effect on opioid-induced analgesia, hotplate test (C57BL/6 mice [1]; [3]): further enhancement of opioid analgesia | effect on onset timing and duration of opioid analgesia, hotplate test (C57BL/6 mice [1]; YM-254890 0.25 or 0.5 mg·kg−1 s.c. with morphine 5 mg/kg s.c.): no effect on either the onset timing or duration of the opioid analgesia | time of maximal analgesic response after injection, hotplate test (C57BL/6 mice [1]; YM-254890 alone, subcutaneous, 0.5 and 1.0 mg·kg−1): 30 min | paw withdrawal latencies in hotplate test (C57BL/6 mice [1]; YM-254890 alone, subcutaneous, higher doses 0.5 and 1.0 mg·kg−1): produced increases in paw withdrawal latencies | paw withdrawal latencies in hotplate test (C57BL/6 mice [1]; YM-254890 alone, subcutaneous, lower doses 0.1 and 0.3 mg·kg−1): No significant effect | analgesia in hotplate test after delivery directly into the brain (C57BL/6 mice [1]; YM-254890 i.c.v. 0.4, 1.2, 4 nmol): dose-dependent increase in both the extent and duration of analgesia | time to reach maximal latencies, hotplate test (C57BL/6 mice [1]; [4]): about 30 min | time to recover to baseline nociceptive thresholds, hotplate test (C57BL/6 mice [1]; [4]): about 3 h | effect on morphine analgesia, tail immersion test (C57BL/6 mice [2]; YM-254890 0.25 mg kg-1 s.c. 10 min before morphine 5 mg/kg s.c.): eliminated this effect | effect on morphine analgesia, tail immersion test (C57BL/6 mice [2]; [3]): significant enhancement of the anti-nociceptive effects of morphine | time to return to baseline nociception, tail immersion test (C57BL/6 mice [2]; YM-254890 alone, intrathecal, 3.0 and 4.5 nmol): about 2 h | magnitude of anti-nociceptive effect upon increasing the dose, tail immersion test (C57BL/6 mice [2]; YM-254890 alone, intrathecal, 3.0 to 4.5 nmol (ceiling effect)): did not change | anti-nociception in tail immersion test, intrathecal (C57BL/6 mice [2]; YM-254890 alone, intrathecal, doses above 1.5 nmol per injection): significant anti-nociceptive properties | anti-nociceptive response in tail flick (tail immersion) test (C57BL/6 mice [2]; YM-254890 alone, highest dose 1 mg·kg−1): significant anti-nociceptive response | anti-nociceptive response in tail flick (tail immersion) test (C57BL/6 mice [2]; YM-254890 alone, lower doses (0.1, 0.3, 0.5 mg/kg)): no significant difference in nociceptive response | effect on systemic morphine analgesia, tail immersion test (C57BL/6 mice [2]; YM-254890 intrathecal 0.5 nmol (lowest subthreshold dose) 10 min before morphine 2.5 mg/kg s.c.): significantly enhance the anti-nociceptive effects of morphine | dose dependence of enhancement of morphine analgesia, tail immersion test (C57BL/6 mice [2]; YM-254890 intrathecal 0.5, 1.5, 3.0, 4.5 nmol with morphine 2.5 mg/kg s.c.): increased dose dependently until maximizing at the cut-off value for the test | maximal extent and duration of morphine analgesia, tail immersion test (C57BL/6 mice [2]; YM-254890 intrathecal, at each of the doses, with morphine 2.5 mg/kg s.c.): both the maximal extent and duration of the analgesic effects of morphine were increased
